Reference: US20040048807A1, “Angiogenesis inhibitors” (priority 2000, published 2004)

Columns and labels:
[1] = test system: KB cells overpressing TP (KB/TP); experiment: Millipore chamber angiogenesis assay, chamber with KB cells implanted dorsal subcutaneously in mouse; type: in vivo; conditions: for number of angiogenesis (longer than 3 mm, zig-zag pattern): 100 mg/kg/day into abdominal cavity every 12 hours for 4 days, male BALB/c mouse
Description: KB cells overpressing TP (KB/TP) prepared by transfection of […] into KB cells and TP-negative KB cells (KB/CV) prepared by transfection of an empty vector are rinsed by phosphate buffered saline PBS for two times, each 1×10^5 numbers are contained into a Millipore chamber (10 mm diameter, 2 mm thickness, pore size of filter is 0.22 μm) and inserted into dorsal subcutaneous of a male BALB/c mouse of 6-7 weeks age. 2-deoxy-L-ribose (100 mg/kg/day) is administered into abdominal cavity every 12 hours for 4 days. After 4 days from the implanting, the Millipore chamber is removed, and numbers of angiogenesis (longer than 3 mm and showing zig-zag pattern) were counted using a microscope. Results by microscope observation are shown in FIG. 2 (picture A, B, C and D). The number of angiogenesis by KB/TP cell (B) is 4.33 and that of KB/CV cell (B) is 2.67. When 2-deoxy-L-ribose is administereded, that of KB/TP cell (D) becomes to 2.83 and that of […] becomes to 2.83.

[2] = test system: BAE cell (endothelial cells of bovine aorta); experiment: Chemotaxis of BAE cells (collagen-coated chamber, MTT method); type: cell-based; conditions: 2DDR 10 μM + 2DLR 100 μM versus 2DDR 10 μM alone; DMEM + 1% FCS; incubation 4.5 hours
Description: The experimental results of the effect of 2-deoxy-L-ribose on the chemotaxis of BAE cell (endothelial cells of bovine aorta) are shown in FIG. 1. The numbers of inoculated cell 400000, incubation 4.5 hours Chamber coated by type 1 collagen: MTT method From left side, 1: DMEM+1% FCS (fetal calf serum) 2: 1+bFGF (angiogenesis factor) 10 ng/mL, 3: 1+2DDR (2-deoxy-D-ribose) 1 μM 4: 1+2DDR 10 μM 5: 1+2DDR 100 μM 6: 1+2DDR 10 μM+2DLR100 μM The effect of 2DLR ([…]) is obvious from the comparison between the date 4 and 6.

KB/TP cells = experiment: TP-dependent liver metastasis after injection of tumor cells into the spleen; type: in vivo, mouse; conditions: for number of metastatic nodules in liver: KB/TP cell into spleen, 4 weeks, Balb/nude mouse
Description: A Balb/nude mouse of 7-8 weeks age is anesthetized by Nembutal (pentobarbital) and abdomen is slightly incised so as to observe the spleen. 1×10^5 numbers of KB/CV cells or KB/TP cells used in Example 2 is injected into the spleen. After one minute, the spleen is excised and the incised position is sutured. 2-deoxy-L-ribose (100 mg/kg/day) is injected to subcutaneous by two times (morning and evening) every day or one time every other day. To the control group, same amount of physiological saline is injected. After 4 weeks from therapy starting, abdomen is incised, the liver is excised and the number of metastatic nodules are counted. […] The number of metastatic lesions of KB/TP cell is obviously larger than those of KB/CV cell.

O=CC[C@@H](O)[C@@H](O)CO [2-deoxy-L-ribose]
suppression of the angiogenesis by TP ([1]; 100 mg/kg/day into abdominal cavity for 4 days, overall conclusion): perfectly supressing the angiogenesis by TP | number of angiogenesis (longer than 3 mm, zig-zag pattern) ([1]; KB/TP cell (D)): 2.83 | number of angiogenesis (longer than 3 mm, zig-zag pattern) ([1]; KB/TP cell (E) as printed): 2.83 | effect on the chemotaxis of BAE cell [2]: obvious | suppression of TP-dependent metastasis of tumor from spleen to liver (KB/TP cells; 100 mg/kg/day subcutaneous, overall conclusion): perfectly suppressing the TP-dependent metastasis of tumor from spleen to liver | number of metastatic nodules in liver (KB/TP cells; 100 mg/kg/day subcutaneous one time every other day): smaller than the number of metastatic nodules of KB/CV cell | number of metastatic nodules in liver (KB/TP cells; 100 mg/kg/day subcutaneous two times (morning and evening) every day (LR)): smaller than the number of metastatic nodules of KB/CV cell
